# From patent US8815831B2, “Treatment of Acinetobacter with alginate oligomers and antibiotics” (priority 2009, dated 2014)
# Assays:
# [1] = test system: Acinetobacter baumannii strains V9, V19; assay: MIC assays as described in Example 1, Example 3 (Table 3); type: cell-based; details: strain V19
# Experimental: (§1) MIC assays as described in Example 1 were conducted using the following Acinetobacter strains, antibiotics and concentrations of OligoCF-5/20 as described in Tables 3 and 4.
# (§2) • V19* 7789 Acinetobacter baumannii • V20* 8065 Acinetobacter Iwoffii MDR Strains • V4* MDR ACB (Libya) Acinetobacter baumannii • V9* (Egypt) Acinetobacter baumannii • V10* (Egypt) Acinetobacter Iwoffii • V22* 6056 Acinetobacter Iwoffii
# Acinetobacter strains = assay: MIC assays of Example 3, Tables 3 and 4 taken together; type: cell-based, Acinetobacter baumannii and Acinetobacter Iwoffii; details: in one Acinetobacter strain or another
# Experimental: as §1, §2
# Further MIC assays were conducted with the various strains and antibiotics recited in Table 4 using the following protocol.
# [2] = test system: Multidrug resistant Acinetobacter baumannii isolated from a source in Libya; assay: Minimum Inhibitory Concentration assay (96-well, CAMHB), Examples 1 and 2
# Experimental: Antibiotics were diluted in cation-adjusted Mueller-Hinton broth (CAMHB) or CAMHB with G-fragments (Oligo CF-5/20 90-95% G residues) at 2%, 6% or 10%.
# Bacterial cultures at 0.5 McFarland standard were diluted ten-fold in CAMHB and 5 μl added to the microtiter plates containing the antibiotic serial dilutions. Plates were wrapped in parafilm and incubated at 37° C. for 16-20 hours. MIC values for each antibiotic were determined as the lowest concentration at which there was no visible growth.
# [3] = test system: Staphylococcus aureus NCTC 6571 MIC CONTROL STRAIN (Oxford Staph.); assay: Minimum Inhibitory Concentration assay (96-well, CAMHB), Example 1; type: cell-based; details: S. Aur
# [4] = A. bau, +2% G (G-fragments Oligo CF-5/20)
# [5] = A. bau, +6% G (G-fragments Oligo CF-5/20)
# [6] = A. bau, +10% G (G-fragments Oligo CF-5/20)
# [7] = +2% G (G-fragments Oligo CF-5/20)
# [8] = +6% G (G-fragments Oligo CF-5/20)
# [9] = +10% G (G-fragments Oligo CF-5/20)
smiles,measurement,setting,value
C[C@@H](O)[C@H]1C(=O)N2C(C(=O)O)=C(SCCN=CN)C[C@H]12 [imipenem],effect of increasing concentrations of OligoCF-5/20 on MIC values (Table 3),[1],no effect
CC[C@H]1OC(=O)[C@H](C)[C@@H](O[C@H]2C[C@@](C)(OC)[C@@H](O)[C@H](C)O2)[C@H](C)[C@@H](O[C@@H]2O[C@H](C)C[C@H](N(C)C)[C@H]2O)[C@](C)(O)C[C@@H](C)CN(C)[C@H](C)[C@@H](O)[C@]1(C)O [azithromycin],effect of increasing concentrations of OligoCF-5/20 (0-10%) on MIC values (Tables 3 and 4),Acinetobacter strains,decreases MIC values
same,inhibition of growth by azithromycin combined with G-fragments,[2]; 4 μg/ml azithromycin and 2% or more G-fragments,completely inhibited
same,"MIC value, Ceftazidime with azithromycin at 4 μg/ml",[2]; [4],<4 μg/ml Az
same,"MIC value, Ceftazidime with azithromycin at 8 μg/ml",[2]; [4],<8 μg/ml Az
same,"MIC value, Ciprofloxacin with azithromycin at 8 μg/ml",[2]; [4],<8 μg/ml Az
same,"MIC value, Ciprofloxacin with azithromycin at 4 μg/ml: azithromycin part of the inhibitory combination","[2]; A. bau, +2% G (G-fragments Oligo CF-5/20), together with 64 Cpr",4 mg/L
same,"MIC value, Ceftazidime with azithromycin at 4 μg/ml",[2]; [5],<4 μg/ml Az
same,"MIC value, Ceftazidime with azithromycin at 8 μg/ml",[2]; [5],<8 μg/ml Az
same,"MIC value, Ciprofloxacin with azithromycin at 4 μg/ml",[2]; [5],<4 μg/ml Az
same,"MIC value, Ciprofloxacin with azithromycin at 8 μg/ml",[2]; [5],<8 μg/ml Az
same,"MIC value, Ceftazidime with azithromycin at 4 μg/ml",[2]; [6],<4 μg/ml Az
same,"MIC value, Ceftazidime with azithromycin at 8 μg/ml",[2]; [6],<8 μg/ml Az
same,"MIC value, Ciprofloxacin with azithromycin at 4 μg/ml",[2]; [6],<4 μg/ml Az
same,"MIC value, Ciprofloxacin with azithromycin at 8 μg/ml",[2]; [6],<8 μg/ml Az
same,effect of OligoCF-5/20 on the MIC value for azithromycin,"[2]; Acinetobacter organism, azithromycin 8 or 4 μg/ml",greatly reduces
same,inhibition of growth by azithromycin in the absence of G-fragments,"[2]; azithromycin at 4 μg/ml and at 8 μg/ml, no G-fragments",not capable of inhibiting growth
same,"MIC value, Ceftazidime with azithromycin at 4 μg/ml",[3]; 0 G (no G-fragments),<4 μg/ml Az
same,"MIC value, Ceftazidime with azithromycin at 8 μg/ml",[3]; 0 G (no G-fragments),<8 μg/ml Az
same,"MIC value, Ciprofloxacin with azithromycin at 4 μg/ml",[3]; 0 G (no G-fragments),<4 μg/ml Az
same,"MIC value, Ciprofloxacin with azithromycin at 8 μg/ml",[3]; 0 G (no G-fragments),<8 μg/ml Az
same,"MIC value, Ceftazidime with azithromycin at 4 μg/ml",[3]; [7],<4 μg/ml Az
same,"MIC value, Ceftazidime with azithromycin at 8 μg/ml",[3]; [7],<8 μg/ml Az
same,"MIC value, Ciprofloxacin with azithromycin at 4 μg/ml",[3]; [7],<4 μg/ml Az
same,"MIC value, Ciprofloxacin with azithromycin at 8 μg/ml",[3]; [7],<8 μg/ml Az
same,"MIC value, Ceftazidime with azithromycin at 4 μg/ml",[3]; [8],<4 μg/ml Az
same,"MIC value, Ceftazidime with azithromycin at 8 μg/ml",[3]; [8],<8 μg/ml Az
same,"MIC value, Ciprofloxacin with azithromycin at 4 μg/ml",[3]; [8],<4 μg/ml Az
same,"MIC value, Ciprofloxacin with azithromycin at 8 μg/ml",[3]; [8],<8 μg/ml Az
same,"MIC value, Ceftazidime with azithromycin at 4 μg/ml",[3]; [9],<4 μg/ml Az
same,"MIC value, Ceftazidime with azithromycin at 8 μg/ml",[3]; [9],<8 μg/ml Az
same,"MIC value, Ciprofloxacin with azithromycin at 4 μg/ml",[3]; [9],<4 μg/ml Az
same,"MIC value, Ciprofloxacin with azithromycin at 8 μg/ml",[3]; [9],<8 μg/ml Az
CC[C@H]1OC(=O)[C@H](C)[C@@H](O[C@H]2C[C@@](C)(OC)[C@@H](O)[C@H](C)O2)[C@H](C)[C@@H](O[C@@H]2O[C@H](C)C[C@H](N(C)C)[C@H]2O)[C@](C)(O)C[C@@H](C)/C(=N\OCOCCOC)[C@H](C)[C@@H](O)[C@]1(C)O [roxithromycin],effect of increasing concentrations of OligoCF-5/20 (0-10%) on MIC values (Tables 3 and 4),Acinetobacter strains,decreases MIC values
